# Test results taken from ChEMBL document CHEMBL3046024, “Ligand-based in silico 3D-QSAR study of PPAR- agonists” (Med Chem Res, 2011).
# Columns and labels:
# [1] = target: T1, Peroxisome proliferator-activated receptor gamma (Homo sapiens, UniProt P37231); assay: Transactivation activity at Homo sapiens (human) PPARgamma
# T1 sequence (P37231 whole entry): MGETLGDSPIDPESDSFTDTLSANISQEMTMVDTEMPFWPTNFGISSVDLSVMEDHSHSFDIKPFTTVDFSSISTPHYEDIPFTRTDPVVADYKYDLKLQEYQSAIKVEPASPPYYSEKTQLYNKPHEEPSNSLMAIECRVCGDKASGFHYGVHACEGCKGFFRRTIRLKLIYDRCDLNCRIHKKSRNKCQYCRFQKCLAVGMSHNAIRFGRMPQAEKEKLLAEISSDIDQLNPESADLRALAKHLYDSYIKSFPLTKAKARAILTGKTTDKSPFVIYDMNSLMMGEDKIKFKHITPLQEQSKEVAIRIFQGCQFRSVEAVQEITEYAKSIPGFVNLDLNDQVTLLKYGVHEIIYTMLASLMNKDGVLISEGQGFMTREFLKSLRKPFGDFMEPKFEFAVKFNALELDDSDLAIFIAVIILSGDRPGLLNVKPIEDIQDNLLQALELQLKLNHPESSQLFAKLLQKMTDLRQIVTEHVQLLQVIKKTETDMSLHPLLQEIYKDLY
# [2] = target: T1, Peroxisome proliferator-activated receptor gamma; assay: Transactivation activity at PPARgamma (unknown origin)
SMILES,EC50 [1] [µM],EC50 [2] [µM]
O=C1NC(=O)C(Cc2ccc3c(c2)CC[C@H](Cc2ccccc2)O3)S1 (stereo not given in full) [ENGLITAZONE],1,–
CCOC(=O)CN1C(=O)SC(Cc2ccc(F)cc2)C1=O (stereo not given),–,10
CCOC(=O)CN1C(=O)S/C(=C\c2cccc([N+](=O)[O-])c2)C1=O,–,11
CCCc1cc(Oc2ccccc2)ccc1OCCCCOc1ccc(C2SC(=O)NC2=O)cc1 (stereo not given),1,–
COC(=O)CN1C(=O)S/C(=C\c2ccc(O)cc2)C1=O,–,10
COC(=O)CN1C(=O)SC(Cc2ccc(O)cc2)C1=O (stereo not given),–,9
C/C(=N\OCCOc1ccc(CC2SC(=O)NC2=O)cc1)c1ccc(-c2ccccc2)cc1 (stereo not given),–,> 0.4
CCOC(=O)CN1C(=O)SC(Cc2ccc(C(F)(F)F)cc2)C1=O (stereo not given),–,9
CCOC(=O)CN1C(=O)SC(Cc2ccc(OCCBr)cc2)C1=O (stereo not given),–,12
CCOC(=O)CN1C(=O)SC(Cc2ccc(N)cc2)C1=O (stereo not given),–,8

# The next lines start with the values.
EC50 [1] [µM],EC50 [2] [µM],SMILES
–,7,CCOC(=O)CN1C(=O)S/C(=C\c2ccc(OC)cc2)C1=O
–,11,CCOC(=O)CN1C(=O)S/C(=C\c2ccc(OCCBr)cc2)C1=O
–,8,CCOC(=O)CN1C(=O)S/C(=C\c2ccc(Cl)cc2)C1=O
–,9,CCOC(=O)CN1C(=O)S/C(=C\c2ccc(C)cc2)C1=O
–,10,CCOC(=O)CN1C(=O)S/C(=C\c2ccc(C(F)(F)F)cc2)C1=O
